Assay results taken from article PMC9370056, “Pyrimidines-Based Heterocyclic Compounds: Synthesis, Cytoxicity Evaluation and Molecular Docking” (Molecules, 2022).
Counter-ions that a name gives are not always drawn.

Tests used:
[1] = tested on: human prostate carcinoma cell line PC3; assay: MTT viability assay, PC3 prostate carcinoma; assay type: cell-based; conditions: for IC50: 24 h
Description: (§1) For antitumor assays, the human prostate carcinoma cell line PC3 was suspended in medium at a concentration of 5 × 10^4 cell/well in Corning® 96-well tissue culture plates, then incubated for 24 h. The tested compounds were then added into 96-well plates (three replicates) to achieve eight concentrations for each compound. Six vehicle controls with media or 0.5 % DMSO were run for each 96-well plate as a control. […] Briefly, the media was removed from the 96-well plate and replaced with 100 µL of fresh culture RPMI-1640 medium without phenol red then 10 µL of the 12 mM MTT stock solution (5 mg of MTT in 1 mL of PBS) to each well including the untreated controls. The 96-well plates were then incubated at 37 °C and 5% CO2 for 4 h. An 85 µL aliquot of the media was removed from the wells, and 50 µL of DMSO was added to each well and mixed thoroughly with a pipette and incubated at 37 °C for 10 min. Then, the optical density was measured at 590 nm with the microplate reader (Sunrise, Tecan Inc, Morrisville, NC, USA) to determine the number of viable cells and the percentage of viability was calculated as [(ODt/ODc)] × 100% where ODt is the mean optical density of wells treated with the tested sample and ODc is the mean optical density of untreated cells. The relation between surviving cells and drug concentration was plotted to obtain the survival curve of each tumor cell line after treatment with the specified compound.

[2] = tested on: normal human lung fibroblasts (MRC-5)
Description: (§3) Preliminary in vitro anticancer activity of two compounds (2, and 3a) against the growth of five human cancer cell lines (prostate carcinoma PC3, liver carcinoma HepG-2, human colon cancer HCT-116, human breast cancer MCF-7, human lung cancer A-549) and normal human lung fibroblasts (MRC-5) were performed using the MTT assay as described in the experimental section. The inhibitory potency of the screened compounds against the tested cell lines was compared to vinblastine sulfate as a reference anticancer drug.
(§4) MRC-5 (normal human Lung fibroblast cells) were obtained from VACSERA Tissue Culture Unit. […] The normal human lung fibroblasts (MRC-5) cells were propagated in Dulbecco’s Modified Eagle’s Medium (DMEM) supplemented with 10% heat-inactivated fetal bovine serum, 1% L-glutamine, HEPES buffer, and 50µg/mL gentamycin. […] All cells were maintained at 37 °C in a humidified atmosphere with 5% CO2 and were subcultured two times a week. Chemicals used: Dimethyl sulfoxide (DMSO), MTT (3-(4,5-dimethylthiazol-2-yl)-2,5-diphenyl tetrazolium bromide), crystal violet, and trypan blue dye were purchased from Sigma (St. Louis, MO, USA). Fetal bovine serum, DMEM, RPMI-1640, HEPES buffer solution, L-glutamine, gentamycin, and 0.25% trypsin-EDTA were purchased from Lonza. Crystal violet stain (1%): composed of 0.5% (w/v) crystal violet and 50% methanol then made up to volume with deionized water and filtered through a Whatman No.1 filter paper.
(§5) For cytotoxicity assay, the normal human lung fibroblasts (MRC-5) cells were seeded in a 96-well plate at a cell concentration of 1 × 10^4 cells per well in 100 µL of growth medium. Fresh medium containing different concentrations of the test sample was added after 24 h of seeding. Serial two-fold dilutions of the tested chemical compound were added to confluent cell monolayers dispensed into 96-well, flat-bottomed microtiter plates (Falcon; Franklin, NJ, USA) using a multichannel pipette. The microtiter plates were incubated at 37 °C in a humidified incubator with 5% CO2 for a period of 24 h. Three wells were used for each concentration of the test sample. Control cells were incubated without the test sample and with or without DMSO. […] After incubation of the cells, viable cell yield was determined by a colorimetric method. After incubating for 24 h, the numbers of viable cells were determined by the MTT test. The cytotoxic concentration (CC50), the concentration required to cause toxic effects in 50% of intact cells, was estimated from graphic plots of the dose–response curve for each conc. using GraphPad Prism software (San Diego, CA. USA).

PC3 and MRC-5 cell lines = assay: Selectivity index, CC50 on normal cells / IC50 on cancer cells; assay type: cell-based, human; conditions: CC50 on MRC-5 / IC50 on PC3
Source text: The selectivity index (SI) is a measure of the drug candidate’s selectivity towards cancer cells rather than normal cells. It can be calculated as the ratio between the tested compound CC50 on normal cells and its IC50 on cancer cells.

[3] = tested on: human colon cancer HCT-116; assay: MTT assay, HCT-116; assay type: cell-based; conditions: Table 1, MTT
Description: [The procedure below names another cell line; the source lists this cell line under the same test.] as §1

liver carcinoma HepG-2 = assay: MTT assay, HepG-2; assay type: cell-based; conditions: Homo sapiens, HepG2; Table 1, MTT
Description: [The procedure below names another cell line; the source lists this cell line under the same test.] as §1

[4] = MTT cytotoxicity assay, normal lung fibroblasts MRC-5; conditions: human, MRC-5 normal lung fibroblast cells
Description: as §3, §4, §5

[5] = tested on: normal human lung fibroblasts (MRC-5); assay: as above; conditions: Homo sapiens, MRC5, 24 h, read-out: IC50 Values MRC-5
human lung cancer A-549 = assay: MTT assay, A-549; assay type: cell-based; conditions: A549, Table 1, MTT
Description: [The procedure below names another cell line; the source lists this cell line under the same test.] as §1

[6] = tested on: human breast cancer MCF-7; assay: MTT assay, MCF-7; assay type: cell-based; conditions: MCF7, Table 1, MTT
Description: [The procedure below names another cell line; the source lists this cell line under the same test.] as §1

PC3 cell line = assay: Microscopic observation of treated tumor cells (crystal violet); assay type: cell-based, human; conditions: 50 µg/mL, 100×, relative to untreated cells
Description: (§2) This experiment was performed as previously described in the procedure for antitumor activity. After the end of the treatment at 50 µg/mL concentration, the plates were inverted to remove the medium, the wells were washed three times with 300 µL of phosphate buffered saline (pH 7.2), and then the cells were fixed to the plate with 10% formalin for 15 min at room temperature. The fixed cells were then stained with 100 µL of 0.25% crystal violet for 20 min. The stain was removed, and the plates were rinsed using deionized water to remove the excess stain and then allowed to dry. The cellular morphology was observed using an inverted microscope (CKX41; Olympus, Tokyo, Japan) equipped with a digital microscopy camera to capture the images representing the morphological changes compared to control cells. The cytopathic effects (morphological alterations) were microscopically detected at 100×.

MRC cell line = assay: Microscopic observation of treated normal cells (crystal violet); assay type: cell-based, human; conditions: 50 µg/mL, 100×, relative to untreated cells
Description: as §2

[7] = Homo sapiens, Table 2, MTT, three replicates

| IC50 [1, 7] [µM] | Molecule | SI (selectivity index) (PC3 and MRC-5 cell lines) | CC50 at 24 h [4] [µM] | Morphological changes of PC3 cells (PC3 cell line) | Morphological changes of MRC cells (MRC cell line) | further results |
| --- | --- | --- | --- | --- | --- | --- |
| 21 ± 1 | N#Cc1c(-c2ccccc2)nc(N/N=C/c2ccc(Br)cc2)[nH]c1=O [Compound 3b, 2-(2-(4-Bromobenzylidene)hydrazinyl)-6-oxo-4-phenyl-1,6-dihydropyrimidine-5-carbonitri-le] |  | 147 ± 4 | the cancer cells shrank and lost their normal shape | no significant apoptotic effect |  |
| 349 ± 9 | N#Cc1c(-c2ccccc2)nc(N/N=C/c2ccc(Cl)cc2)[nH]c1=O [Compound 3c, 2-(2-(4-Chlorobenzylidene)hydrazinyl)-6-oxo-4-phenyl-1,6-dihydropyrimidine-5-carbonitri-le] | 1.93 | 675 ± 19 |  |  |  |
| 17 ± 1 | N#Cc1c(-c2ccccc2)nc(N/N=C/c2ccccc2Cl)[nH]c1=O [Compound 3d, 2-(2-(2-Chlorobenzylidene)hydrazinyl)-6-oxo-4-phenyl-1,6-dihydropyrimidine-5-carbonitri-le] | 2.52 | 44 ± 1 |  |  | fold more potent than vinblastine sulfate ([1]; PC3, from IC50 values): 2 to 3 fold |
| 182 ± 5 | Cc1ccccc1/C=N/Nc1nc(-c2ccccc2)c(C#N)c(=O)[nH]1 [Compound 3e, 2-(2-(2-Methylbenzylidene)hydrazinyl)-6-oxo-4-phenyl-1,6-dihydropyrimidine-5-carboni-trile] | 2.34 | 428 ± 16 |  |  |  |
| 88 ± 2 | COc1cccc(/C=N/Nc2nc(-c3ccccc3)c(C#N)c(=O)[nH]2)c1 [Compound 3f, 2-(2-(3-Methoxybenzylidene)hydrazinyl)-6-oxo-4-phenyl-1,6-dihydropyrimidine-5-carbo-nitrile] |  | 339 ± 11 | the cancer cells shrank and lost their normal shape | no significant apoptotic effect |  |
| 64 ± 3 | N#Cc1c(-c2ccccc2)nc(N/N=C/c2ccc(O)cc2)[nH]c1=O [Compound 3g, 2-(2-(4-Hydroxybenzylidene)hydrazinyl)-6-oxo-4-phenyl-1,6-dihydropyrimidine-5-carboni-trile] |  | 311 ± 14 | the cancer cells shrank and lost their normal shape | no significant apoptotic effect |  |
| 44 ± 2 | N#Cc1c(-c2ccccc2)nc(NN=CC=Cc2ccccc2)[nH]c1=O [Compound 3h, 6-Oxo-4-phenyl-2-(2-(3-phenylallylidene)hydrazinyl)-1,6-dihydropyrimidine-5-carbonitrile] |  | 180 ± 9 | the cancer cells shrank and lost their normal shape | no significant apoptotic effect |  |
| 37 ± 2 | N#Cc1c(-c2ccccc2)nc(NN=Cc2ccc([N+](=O)[O-])cc2)[nH]c1=O [Compound 3i, 2-(2-(4-Nitrobenzylidene)hydrazinyl)-6-oxo-4-phenyl-1,6-dihydropyrimidine-5-carbonitrile] | 2.18 | 82 ± 3 |  |  |  |

The next lines start with the molecule.

| Molecule | IC50 [1, 7] [µM] | SI (selectivity index) (PC3 and MRC-5 cell lines) | CC50 at 24 h [4] [µM] | Morphological changes of PC3 cells (PC3 cell line) | Morphological changes of MRC cells (MRC cell line) | further results |
| --- | --- | --- | --- | --- | --- | --- |
| 3-Hydroxy-6-oxo-8-phenyl-2,6-dihydro-1H-pyrimido[2,1-c]-1,2,4-triazine-7-carbonitrile [Compound 6] |  | 2.17 |  |  |  | IC50 ([1]; Table 2, MTT, three replicates): 208 ± 7 µM; CC50 [2]: 453 ± 13 µM |
| N#Cc1c(-c2ccccc2)nc(NN)[nH]c1=O [Compound 2, 2-Hydrazino-6-oxo-4-phenyl-1,6-dihydropyrimidine-5-carbonitrile] |  | 2.05 | 532 ± 14 |  |  | IC50 [3]: 180 µM; IC50 (liver carcinoma HepG-2): 99 µM; IC50 ([1]; Homo sapiens, Table 1, MTT): 258 µM; IC50 [5]: 532 µM; IC50 (human lung cancer A-549): 264 µM; IC50 [6]: 236 µM |
| N#Cc1c(-c2ccccc2)nc(NN=Cc2ccccc2)[nH]c1=O [Compound 3a, 2-(2-Benzylidenehydrazinyl)-6-oxo-4-phenyl-1,6-dihydropyrimidine-5-carbonitrile] |  | 0.99 | 92 ± 3 |  |  | IC50 [3]: 149 µM; IC50 (liver carcinoma HepG-2): 59 µM; IC50 ([1]; Homo sapiens, Table 1, MTT): 93 µM; IC50 [5]: 92 µM; IC50 (human lung cancer A-549): 98 µM; IC50 [6]: 81 µM |
| N#Cc1c(-c2ccccc2)nc(N/N=C2\C(=O)Nc3ccccc32)[nH]c1=O [Compound 4, 6-Oxo-2-(2-(isatin-3-ylidene)hydrazinyl)-4-phenyl-1,6-dihydropyrimidine-5-carbonitrile] | 603 ± 19 | 0.57 | 348 ± 11 |  |  |  |
| N#Cc1c(-c2ccccc2)nc2n(c1=O)C(c1ccccc1)C(c1ccccc1)=NN2 (stereo not drawn) [Compound 5, 6-Oxo-3,4,8-triphenyl-4,6-dihydro-1H-pyrimido[2,1-c]-1,2,4-triazine-7-carbonitrile] | 72 ± 2 |  | 263 ± 7 | the cancer cells shrank and lost their normal shape | no significant apoptotic effect |  |
| CC[C@]1(O)C[C@@H]2CN(CCc3c([nH]c4ccccc34)[C@@](C(=O)OC)(c3cc4c(cc3OC)N(C)[C@H]3[C@@](O)(C(=O)OC)[C@H](OC(C)=O)[C@]5(CC)C=CCN6CC[C@]43[C@@H]65)C2)C1 [Vinblastine sulfate, reference compound] |  | 1.40 | 65 ± 2 |  |  | IC50 [3]: 4 µM; IC50 (liver carcinoma HepG-2): 3 µM; IC50 ([1]; Homo sapiens, Table 1, MTT): 46 µM; IC50 [5]: 65 µM; IC50 (human lung cancer A-549): 27 µM; IC50 [6]: 6 µM |
